Experimental data reported in patent EP0215701A1, “Esters of cyclopropanecarboxylic acids and 2,3-dihydro-4-phenyl-1H-inden-2-ol, their preparation, their use as parasiticides and compositions containing them” (ROUSSEL-UCLAF, priority 1985, dated 1987).

System: Tétranychus urticae
Test: Adulticide test on Tétranychus urticae (treated bean plants)
Type: in vivo
Conditions: bean plants sprayed at different doses, infested with 25 females per leaf, 22-23°C, 60-65% relative humidity; live and dead mites counted 24 h and 48 h after treatment
Text: On utilise des plants de haricots comportant deux feuilles qui sont traitées au pistolet Fisher à différentes doses des produits à tester. Après séchage, ces plants sont infestés à raison de 25 femelles de Tétranychus urticae par feuille et maintenus à 22-23◊C, 60 - 65% d'humidité relative. Les dénombrements des acariens vivants et morts sont effectués 24 heures et 48 heures après traitement.

CC(C)(C)OC(=O)/C(F)=C\[C@H]1[C@@H](C(=O)OC2Cc3cccc(-c4ccccc4)c3C2)C1(C)C (stereo partly drawn) [Exemple 4, /1R-/1α,3α (E)/ 3-(3-terbutoxy-3-oxo-2-fluoro-1-propényl) -2,2-diméthyl cyclopropane carboxylatede 2,3-dihydro-4-phényl-1H-inden-2-yle]
CL 50: 173 mg/hl
